Like-named read-outs stand apart in the source and are kept apart here.
Experiments:
[1] = biological target: T1, PI3K-γ kinase (p110γ) (Homo sapiens, UniProt P48736); assay: Determination of PI3K kinase activity (ADP Transcreener, fluorescence polarization); assay type: biochemical; details: Table 1; ATP 10 μM; read-out: PI3K-γ/nM (IC50 of inhibitory activity against PI3K kinase)
T1 construct: purchased Invitrogen PV4786
In short: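 Each 25 μL reaction held PI3K enzyme (p110α/p85α 3 ng, p110β/p85α 60 ng, p110δ/p85α 90 ng, or p110γ 100 ng), 10 μM ATP, 30 μM PIP2:PS and 2% DMSO, incubated 1 h at 25 °C. Compounds were tested in duplicate across a 3-fold series, 0.00046–1 μM as prepared. ADP was detected by Transcreener fluorescence polarization, quantified against an ADP/ATP standard curve, and IC50 fitted.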

[2] = biological target: T2, PI3K-β kinase (p110β/p85α) (Homo sapiens, UniProt P42338); assay: as above; assay type: biochemical; details: Table 1; ATP 10 μM; read-out: PI3K-β/nM (IC50 of inhibitory activity against PI3K kinase)
T2 construct: purchased Millipore 14-603

[3] = biological target: T3, PI3K-δ kinase (p110δ/p85α) (Homo sapiens, UniProt O00329); assay: as above; assay type: biochemical; details: Table 1; ATP 10 μM; read-out: PI3K-δ/nM (IC50 of inhibitory activity against PI3K kinase)
T3 construct: purchased Millipore 14-604M

[4] = biological target: T4, PI3K-α kinase (p110α/p85α) (Homo sapiens, UniProt P42336); assay: as above; assay type: biochemical; details: ATP 10 μM
T4 construct: purchased Invitrogen PV4788

[5] = system: MCF-7 cells; assay: Cell inhibitory activity detected by MTT assay, MCF-7; assay type: cell-based; details: Homo sapiens, MCF7, 72 h, read-out: MCF-7 cell (IC50/nM), cell growth inhibition
In short: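 MCF-7 cells in DMEM + 10% FBS were treated after adherence with compounds at 8 concentrations (0.0046–10 μM) for 72 h at 37 °C, 5% CO2.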

[6] = Table 1, read-out: PI3K-α/nM (IC50 of inhibitory activity against PI3K kinase)
[7] = Table 2, read-out: PI3K-α/nM (IC50 of inhibitory activity against PI3K-α kinase)

T2 sequence (P42338 whole entry): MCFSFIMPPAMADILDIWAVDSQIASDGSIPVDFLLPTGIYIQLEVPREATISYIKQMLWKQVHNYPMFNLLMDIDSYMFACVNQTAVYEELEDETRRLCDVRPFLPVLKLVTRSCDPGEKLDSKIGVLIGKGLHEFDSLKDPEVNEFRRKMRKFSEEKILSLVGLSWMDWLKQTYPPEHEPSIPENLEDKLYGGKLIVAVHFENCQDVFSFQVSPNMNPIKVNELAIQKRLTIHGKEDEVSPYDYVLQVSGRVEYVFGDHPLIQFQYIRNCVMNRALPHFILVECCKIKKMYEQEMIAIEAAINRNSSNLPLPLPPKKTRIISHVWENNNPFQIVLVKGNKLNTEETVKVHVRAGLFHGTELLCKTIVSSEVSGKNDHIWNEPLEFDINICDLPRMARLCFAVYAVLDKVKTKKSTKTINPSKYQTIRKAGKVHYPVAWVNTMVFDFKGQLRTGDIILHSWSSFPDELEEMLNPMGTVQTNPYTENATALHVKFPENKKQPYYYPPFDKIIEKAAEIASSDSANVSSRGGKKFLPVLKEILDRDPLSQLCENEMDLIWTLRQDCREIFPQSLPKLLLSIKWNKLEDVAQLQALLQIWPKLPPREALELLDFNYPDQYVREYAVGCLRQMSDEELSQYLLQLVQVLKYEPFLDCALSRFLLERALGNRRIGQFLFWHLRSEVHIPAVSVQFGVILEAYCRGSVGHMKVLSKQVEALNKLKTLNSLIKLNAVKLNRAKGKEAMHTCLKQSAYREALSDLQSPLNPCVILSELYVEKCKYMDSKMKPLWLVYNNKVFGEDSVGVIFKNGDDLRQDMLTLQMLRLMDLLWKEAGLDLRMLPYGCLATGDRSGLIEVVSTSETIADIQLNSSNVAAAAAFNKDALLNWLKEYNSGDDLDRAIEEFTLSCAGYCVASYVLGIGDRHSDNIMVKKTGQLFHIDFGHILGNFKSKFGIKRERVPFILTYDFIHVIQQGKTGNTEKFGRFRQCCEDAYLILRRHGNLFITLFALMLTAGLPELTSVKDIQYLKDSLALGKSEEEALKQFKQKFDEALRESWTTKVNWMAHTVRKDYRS
T2 sequence (P27986 whole entry partner): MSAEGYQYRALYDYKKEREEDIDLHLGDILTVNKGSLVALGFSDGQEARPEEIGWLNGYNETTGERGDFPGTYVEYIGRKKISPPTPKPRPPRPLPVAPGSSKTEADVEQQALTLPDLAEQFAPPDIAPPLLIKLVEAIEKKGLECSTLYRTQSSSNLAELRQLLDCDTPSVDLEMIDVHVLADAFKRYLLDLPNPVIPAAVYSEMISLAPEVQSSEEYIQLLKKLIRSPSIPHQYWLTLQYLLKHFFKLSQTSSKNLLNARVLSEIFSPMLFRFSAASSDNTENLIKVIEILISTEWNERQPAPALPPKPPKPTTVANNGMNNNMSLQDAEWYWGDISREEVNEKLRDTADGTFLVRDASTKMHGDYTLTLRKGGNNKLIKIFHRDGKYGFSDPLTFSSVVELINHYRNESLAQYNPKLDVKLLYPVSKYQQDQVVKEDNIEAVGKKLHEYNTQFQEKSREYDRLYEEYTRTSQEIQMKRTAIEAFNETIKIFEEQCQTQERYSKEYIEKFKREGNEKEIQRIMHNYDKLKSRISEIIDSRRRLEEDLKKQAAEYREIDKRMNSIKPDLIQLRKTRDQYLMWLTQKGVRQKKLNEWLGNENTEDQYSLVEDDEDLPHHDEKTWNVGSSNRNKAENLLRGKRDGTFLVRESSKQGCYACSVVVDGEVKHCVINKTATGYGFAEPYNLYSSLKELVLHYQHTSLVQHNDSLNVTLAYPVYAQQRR
T1 sequence (P48736 whole entry): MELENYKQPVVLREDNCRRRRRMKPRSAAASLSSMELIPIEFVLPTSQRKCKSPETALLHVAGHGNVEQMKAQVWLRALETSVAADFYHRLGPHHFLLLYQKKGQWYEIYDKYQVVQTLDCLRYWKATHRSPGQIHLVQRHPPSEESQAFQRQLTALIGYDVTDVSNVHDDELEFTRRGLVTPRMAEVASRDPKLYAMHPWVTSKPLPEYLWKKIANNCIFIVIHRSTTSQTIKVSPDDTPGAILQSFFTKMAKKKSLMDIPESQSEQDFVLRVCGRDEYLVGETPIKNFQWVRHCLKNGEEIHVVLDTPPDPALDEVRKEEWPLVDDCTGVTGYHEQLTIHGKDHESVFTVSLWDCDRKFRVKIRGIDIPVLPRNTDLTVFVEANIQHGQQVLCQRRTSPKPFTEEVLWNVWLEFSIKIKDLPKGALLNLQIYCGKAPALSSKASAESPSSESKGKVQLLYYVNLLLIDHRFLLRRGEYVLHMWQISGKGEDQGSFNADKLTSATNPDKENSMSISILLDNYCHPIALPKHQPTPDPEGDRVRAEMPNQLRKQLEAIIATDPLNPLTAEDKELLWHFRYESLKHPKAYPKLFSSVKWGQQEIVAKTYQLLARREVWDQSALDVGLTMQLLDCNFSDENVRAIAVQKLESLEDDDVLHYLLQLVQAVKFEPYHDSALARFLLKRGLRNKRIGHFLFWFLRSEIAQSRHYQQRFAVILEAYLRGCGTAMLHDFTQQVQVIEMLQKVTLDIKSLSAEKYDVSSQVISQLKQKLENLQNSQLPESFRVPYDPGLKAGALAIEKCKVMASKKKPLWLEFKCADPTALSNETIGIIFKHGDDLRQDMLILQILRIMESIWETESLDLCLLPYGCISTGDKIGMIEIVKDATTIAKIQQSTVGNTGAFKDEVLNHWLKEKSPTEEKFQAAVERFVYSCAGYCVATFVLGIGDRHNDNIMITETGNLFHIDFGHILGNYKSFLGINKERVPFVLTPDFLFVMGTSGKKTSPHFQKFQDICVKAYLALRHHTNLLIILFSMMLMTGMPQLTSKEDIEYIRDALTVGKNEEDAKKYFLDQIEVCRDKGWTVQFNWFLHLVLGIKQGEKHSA
T4 sequence (P42336 whole entry): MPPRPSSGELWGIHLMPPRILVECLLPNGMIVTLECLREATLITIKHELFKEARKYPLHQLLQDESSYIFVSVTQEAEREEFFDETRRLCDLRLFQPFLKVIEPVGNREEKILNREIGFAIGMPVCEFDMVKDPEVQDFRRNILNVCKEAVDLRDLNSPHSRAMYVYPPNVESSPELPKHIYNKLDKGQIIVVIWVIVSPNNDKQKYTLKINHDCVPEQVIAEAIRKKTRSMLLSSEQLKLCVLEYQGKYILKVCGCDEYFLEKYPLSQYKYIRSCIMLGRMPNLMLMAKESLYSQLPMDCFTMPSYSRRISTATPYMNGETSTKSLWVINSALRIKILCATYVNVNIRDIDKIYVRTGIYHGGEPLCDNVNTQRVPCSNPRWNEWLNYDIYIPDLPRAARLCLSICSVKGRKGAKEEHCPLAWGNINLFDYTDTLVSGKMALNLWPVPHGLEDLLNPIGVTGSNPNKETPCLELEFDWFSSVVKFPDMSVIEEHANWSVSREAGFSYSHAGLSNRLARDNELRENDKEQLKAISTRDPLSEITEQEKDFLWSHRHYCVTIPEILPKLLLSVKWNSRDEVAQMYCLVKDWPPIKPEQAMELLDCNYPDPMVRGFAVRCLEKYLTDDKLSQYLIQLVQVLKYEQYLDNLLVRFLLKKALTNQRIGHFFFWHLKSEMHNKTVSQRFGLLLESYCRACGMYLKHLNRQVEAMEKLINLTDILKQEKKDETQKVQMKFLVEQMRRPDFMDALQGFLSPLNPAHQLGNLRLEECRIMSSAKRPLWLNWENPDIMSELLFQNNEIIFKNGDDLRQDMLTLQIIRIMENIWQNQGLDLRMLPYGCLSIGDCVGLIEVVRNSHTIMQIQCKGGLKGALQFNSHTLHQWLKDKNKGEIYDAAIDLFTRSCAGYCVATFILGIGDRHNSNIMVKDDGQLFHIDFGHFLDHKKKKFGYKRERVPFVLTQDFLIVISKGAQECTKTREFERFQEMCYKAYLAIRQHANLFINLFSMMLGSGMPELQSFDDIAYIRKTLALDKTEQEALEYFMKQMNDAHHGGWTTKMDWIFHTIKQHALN
T4 sequence (P27986 whole entry partner): as the sequence (P27986 whole entry partner) above
T3 sequence (O00329 whole entry): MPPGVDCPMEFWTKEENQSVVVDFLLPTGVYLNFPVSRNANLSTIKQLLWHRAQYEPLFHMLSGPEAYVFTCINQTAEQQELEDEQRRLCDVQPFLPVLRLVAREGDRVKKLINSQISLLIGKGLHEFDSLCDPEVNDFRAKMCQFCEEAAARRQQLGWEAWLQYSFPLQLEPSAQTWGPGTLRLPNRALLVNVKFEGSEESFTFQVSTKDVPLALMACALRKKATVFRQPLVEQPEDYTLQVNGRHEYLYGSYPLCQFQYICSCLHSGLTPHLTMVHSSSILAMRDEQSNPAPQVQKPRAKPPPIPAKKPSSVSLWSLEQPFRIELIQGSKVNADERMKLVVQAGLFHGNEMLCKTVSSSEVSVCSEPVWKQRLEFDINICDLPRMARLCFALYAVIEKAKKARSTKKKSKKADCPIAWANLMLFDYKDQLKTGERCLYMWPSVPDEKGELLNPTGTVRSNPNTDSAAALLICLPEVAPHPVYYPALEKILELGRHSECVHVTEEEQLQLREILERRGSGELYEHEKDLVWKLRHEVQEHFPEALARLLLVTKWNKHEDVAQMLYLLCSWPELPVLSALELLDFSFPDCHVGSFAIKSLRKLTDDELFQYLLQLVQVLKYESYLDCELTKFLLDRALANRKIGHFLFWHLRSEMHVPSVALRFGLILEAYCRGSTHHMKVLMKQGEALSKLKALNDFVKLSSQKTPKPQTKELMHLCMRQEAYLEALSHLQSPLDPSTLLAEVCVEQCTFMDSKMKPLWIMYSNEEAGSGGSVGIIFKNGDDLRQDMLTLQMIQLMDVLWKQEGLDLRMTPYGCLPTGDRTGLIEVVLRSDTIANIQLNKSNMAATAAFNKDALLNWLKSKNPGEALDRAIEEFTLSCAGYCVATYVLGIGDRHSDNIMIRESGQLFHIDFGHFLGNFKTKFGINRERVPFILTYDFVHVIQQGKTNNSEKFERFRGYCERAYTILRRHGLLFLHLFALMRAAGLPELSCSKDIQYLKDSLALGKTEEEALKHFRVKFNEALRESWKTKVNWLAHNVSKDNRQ
T3 sequence (P27986 whole entry partner): as the sequence (P27986 whole entry partner) above

SMILES	IC50 [1] [nM]	IC50 [2] [nM]	IC50 [3] [nM]	IC50 [4, 6] [nM]	IC50 [5] [nM]	IC50 [4, 7] [nM]
C[C@H]1COCCN1c1nc(-c2cnc(N)cc2F)cc(C(C)(C)S(C)(=O)=O)n1 [Compound S-84]	219	812	18	21	15	
CCS(=O)(=O)C1(c2cc(-c3cnc(N)cc3F)nc(N3CCOCC3)n2)CC1 [Compound S-85]	244	484	228	29	25	29
CC(C)S(=O)(=O)C1(c2cc(-c3cnc(N)cc3F)nc(N3CCOCC3)n2)CC1 [Compound S-86]	192	763	397	26	29	26
CS(=O)(=O)C1(c2cc(N3CCOCC3)nc(-c3cnc(N)cc3C(F)(F)F)n2)CC1 [reference compound]	> 3000	2160	2580	90	639	

Stronger by IC50 [1], values ahead:

IC50 [1] [nM]	IC50 [2] [nM]	IC50 [3] [nM]	IC50 [4, 6] [nM]	IC50 [5] [nM]	IC50 [4, 7] [nM]	SMILES
181	812	178	43	104		CC(C)(c1cc(-c2cnc(N)cc2F)nc(N2CCOCC2)n1)S(C)(=O)=O [Compound S-81]
116	86	132	39	27		CS(=O)(=O)C1(c2cc(-c3cnc(N)cc3F)nc(N3CCOCC3)n2)CC1 [Compound S-82]
98	521	209	48	102	48	Nc1cc(F)c(-c2cc(C3(S(=O)(=O)C4CC4)CC3)nc(N3CCOCC3)n2)cn1 [Compound S-88]

— US10227324B2 (Shanghai Haiyan Pharmaceutical Technology Co., Ltd., priority 2014, dated 2019)
